System: total leukocyte and neutrophil counts in bronchoalveolar lavage fluid
Test: In vivo assay: LPS-induced pulmonary inflammation model in rats
Design: species or system Sprague Dawley rats
Details: Rattus norvegicus, po; p.o. 1 h prior to LPS aerosol; BAL cell counts 4 h after LPS
Description: In Vivo Assay: LPS-Induced Pulmonary Inflammation Model in Rats
Exposure of rats to aerosolised lipopolysaccharide (LPS) causes a pulmonary mainly neutrophilic inflammation, which can be assessed by bronchoalveolar lavage (BAL). LPS-induced pulmonary inflammation models are robust and are commonly used for the evaluation of test compounds modulating the immediate immune response. Selective EP2 agonists are administered per oral 1 h prior nose-only LPS challenge in rats. The anti-inflammatory activity of the selective EP2 agonists is assessed based on pulmonary total leukocyte and neutrophil counts in the bronchoalveolar lavage fluid 4 h after LPS exposure.
Male Sprague Dawley rats weighing 250-300 g were used. Rats were delivered 1 week prior to the experiments and hadfree access to water and food.
The test compound was mixed with 1.33% polyethylenglycol 400 (PEG400, Merck, Darmstadt, Germany) and subsequently suspended in 2% methocel solution (hypromellose, Sigma, Steinheim, Germany) containing Antifoam C Emulsion (Sigma, Steinheim, Germany, 0.1 mL/15 mL) using a mixing device (ULTRA-TURRAX T8 basic, VDI12, VWR International GmbH). The aimed doses were prepared by dilution series from the stock suspension, which was prepared for the administration of the highest dose in each experiment.
The administered volume of the compound suspension was 10 mL/kg. On day of the experiment the rat body weights were documented to calculate the volume to be administered. LPS challenged and unchallenged control animals received compound-free vehicle solution as placebo. Test compounds and vehicle were administered by oral gavage 1 h prior to LPS challenge.
Conscious and restrained animals were connected to a nose-only exposure system (CR equipment SA, Tannay, Switzerland) and were exposed to the LPS aerosol for 30 min. The LPS-containing aerosol was generated using a compressed air driven medication nebulizer device (Pari LC Sprint Star, Pari GmbH, Starnberg, Germany). The LPS solution (E. coli, Serotype 055B5, Sigma-Aldrich, 1 mg/ml diluted in PBS) was prepared 30 minutes in advance. The aerosol was dispersed and transported to the exposure tower by a sheath air flow of 6001/h. All rats except negative controls were exposed to LPS.
4 hours after LPS challenge, animals were anesthetised by isoflurane and scarified by cervical dislocation. BALs were performed. For the BAL the trachea was exposed and cannulated, followed by gently lavaging the lungs two times in situ with 4 ml PBS buffer supplemented with 0.5% Bovine Serum Albumin (Serve, Darmstadt, Germany).
Determination of total leukocyte and neutrophil counts in BALF was performed with an automated leukocyte differentiation system (XT-2000iV, Sysmex, Norderstedt, Germany).
The baseline correction was done for each sample according to the formula: baseline-corrected cell count value=cell count−median (negative control group)
Suppression of LPS-induced total cell and neutrophil influx into the lungs was calculated in % using the medians of the cell counts of each treatment group in relation to the control groups according to the formula: % effect=(Y−K)/K*100 • With defining: • Y=median of the baseline-corrected compound treated group • K=median of the baseline-corrected vehicle treated group
Statistical analysis was performed on the primary cell count data using One-Way ANOVA and Dunnett's Multiple Comparison test vs. positive control.

Structure (SMILES)	ED50 [mg/kg]
O=C(O)/C=C/c1ccc(F)c(NC(=O)c2cc(-c3ccccc3)cc3ccccc23)c1 [Example 2, (2E)-3-(4-fluoro-3-{[(3-phenylnaphthalen-1-yl)carbonyl]amino}phenyl)prop-2-enoic acid]	0.1 to 2
O=C(O)/C=C/c1ccc(Cl)c(NC(=O)c2cc(-c3ccccc3)cc3ccccc23)c1 [Example 3, (2E)-3-(4-chloro-3-{[(3-phenylnaphthalen-1-yl)carbonyl]amino}phenyl)prop-2-enoic acid]	0.1 to 2
O=C(O)/C=C/c1cccc(NC(=O)c2cc(-c3ccccc3)cc3ccccc23)c1 [Example 1, (2E)-3-(3-{[(3-phenylnaphthalen-1-yl)carbonyl]amino}phenyl)prop-2-enoic acid]	0.1 to 2
O=C(O)/C=C/c1ccc(F)c(NC(=O)c2cc(-c3cccc(F)c3)cc3ccccc23)c1 [Example 10, (2E)-3-{3-[({3-[3-fluorophenyl]naphthalen-1-yl}carbonyl)amino]-4fluorophenyl}prop-2-enoic acid]	0.1 to 2
O=C(O)/C=C/c1ccc(F)c(NC(=O)c2cc(-c3ccccc3F)cc3ccccc23)c1 [Example 9, (2E)-3-{3-[({3-[2-fluorophenyl]naphthalen-1-yl}carbonyl)amino]-4fluorophenyl}prop-2-enoic acid]	0.1 to 2
